{
  "source": "patent US20030186334A1",
  "about": "“KTS-disintegrins” (Temple University - Of the Commonwealth System of Higher …, priority 2001, published 2003)",
  "key": {"αIIbβ3 integrin": {"target": "T1, αIIbβ3 integrin (Homo sapiens, UniProt P05106+P08514)", "T1 construct": "expressed in transfected cells; host or cells: A5 cells", "experiment": "adhesion of A5 cells to fibrinogen", "assay_type": "cell-based", "procedure": "Adhesive ligands for the selected integrins consisted of collagen IV (0.2 μg/well), collagen I, fibronectin, or vascular cell adhesion molecule-1 (VCAM-1). Adhesive ligands in 0.02 M acetic acid were immobilized overnight at 4° C. on a 96-well plate. Plates were then blocked with 1% (w/v) BSA (bovine serum albumin) in Hank's Balanced Salt Solution (HBSS) containing 3 mM Mg^2+ at room temperature for 1-2 hours to prevent cells from non-specifically binding to the plates. α1K562, α2K562, K562, A5, and Jurkat cells expressing the α1β1, α2β1, α5β1, αIIbβ3, and α4β1 integrins respectively were labeled by incubation with 12.5 μM 5-chloromethylfluorescein diacetate (CMFDA) in HBSS for 15 minutes at 37° C. CMFDA labeled cells were then pelleted, washed and resuspended in HBSS buffer containing 3 mM Mg^2+ and 1% (w/v) BSA. […] Plates were then incubated at 37° C. for 30 minutes as indicated in Table 5 and washed three times with HBSS containing 3 mM Mg^2+ and 1% (w/v) BSA to remove unbound cells. Bound cells were lysed using 0.5% (v/v) Triton X-100 in H2O. Fluorescent CMFDA released by lysis of adherent cells in a given well was read using a Cytofluor 2350 fluorescence plate reader.\nThe effect of obtustatin, viperisrastatin, echistatin, and eristostatin on the binding of selected integrins to their adhesive ligands was evaluated using the cell adhesion assay described in Example 6. The integrin-expressing cells, integrins and corresponding adhesive ligands, and the results of the cell adhesion assay are shown in Table 6."}, "angiogenesis": {"test_system": "angiogenesis", "experiment": "Japanese quail chorioallantoic membrane (CAM) angiogenesis assay", "assay_type": "in vivo", "details": "20 μg and 50 μg, no angiogenesis stimulators", "procedure": "The disintegrins obtustatin and eristostatin were evaluated for their effect on angiogenesis via a Japanese quail chorioallantoic membrane (CAM) assay, as is known in the art (see, for example, Parsons-Wingerter P et al., “A Novel Assay of Angiogenesis in the Quail Chorioallantoic Membrane: Stimulation by bFGF and Inhibition by Angiostatin According to Fractal Dimension and Grid Intersection.” Microvascular Research 55(3):201-214, 1998, the disclosure of which is herein incorporated by reference)."}, "Lewis lung carcinoma": {"test_system": "Lewis lung carcinoma", "experiment": "Lewis lung carcinoma growth in syngeneic mouse model", "assay_type": "in vivo, C57BL/6 mice", "details": "5 mg/kg intraperitoneally once daily for eight days", "procedure": "Lewis lung carcinoma cells (1×10^6) were injected under the skin of the C57BL/6 mice (Tacoma Inc., Germantown, N.Y.), and tumors were allowed to grow for one week. The average tumor size after one week of growth was approximately 0.08 cm^3. The one-week time-point was called “day 0.” Two treatment groups of four mice each were injected intraperitoneally once daily with either 5 mg/kg obtustatin or 5 mg/kg echistatin beginning on day 0 for a total of eight days. A control group of four mice received only PBS. Tumor volume was measured daily using the formula length×width^2×0.52."}, "[1]": {"test_system": "dermal microvascular endothelial cells (EC)", "experiment": "apoptosis by caspase-3 levels in dermal microvascular endothelial cells", "assay_type": "cell-based", "procedure": "The mechanisms of the cancer-suppressing effect observed for obtustatin were investigated as follows. Dermal microvascular endothelial cells (EC) and human melanoma cells (MV3) were cultured and exposed to TNF-α, vincristine and obtustatin. (TNF-α and vincristine are compounds which induce cell death by apoptosis in both normal and cancerous cells.) Control cells received only vehicle. The extent of apoptosis was measured by determining caspase-3 levels."}, "[2]": {"test_system": "human microvascular endothelial cells (HMVECs)", "experiment": "BrdU incorporation growth assay in HMVECs", "assay_type": "cell-based", "details": "2 μM", "procedure": "Human microvascular endothelial cells (HMVECs) and melanoma cells (HS.939T) were cultured and treated with vehicle (control), 2 μM obtustatin, 2 μM echistatin or 50 ng/ml TNF-α. Growth of the cells was determined by a standard BrdU incorporation assay (Chemicon), according to the manufacturer's instructions."}},
  "data": [
    {"substance": "Obtustatin (CTTGPCCRQCKLKPAGTTCWKTSLTSHYCTGKSCDCPLYPG)", "values": [
      {"measurement": "IC50", "setting": "αIIbβ3 integrin", "result": "> 10", "unit": "µM"},
      {"measurement": "inhibitory activity on angiogenesis (fractal dimension)", "setting": "angiogenesis", "result": "up to 30 % of control"},
      {"measurement": "inhibition of tumor development (tumor volume)", "setting": "Lewis lung carcinoma", "result": "by about half"},
      {"measurement": "apoptosis (caspase-3)", "setting": "[1]", "result": "induced significant apoptosis"},
      {"measurement": "growth (BrdU incorporation)", "setting": "[2]", "result": "inhibited growth"}
    ]}
  ]
}
